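Results reflect a 48-hour exposure of cells in 96-well plates to compound at five concentrations. TGI is the concentration that stops growth completely.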 Where a SMILES comes first, the peptide text is derived from it. The star is where a group is joined. Boc = CC(C)(C)OC(=O)*

The test system of one assay is IGROV1 ovarian. Kind of assay: NCI anticancer screen, dose series, 48 h.
On to `COc1ccc2c(c1)C(=O)C1CC(=O)CCC21` (stereo unspecified), for which the TGI is > 100 µM.

In the case of `COc1cccc(NC(=O)CSc2nnc(-c3ccc(NC(C)=O)cc3)o2)c1`, the TGI is > 100 µM.

On to `CCn1c2ccccc2c2ccc3c(c21)C(=O)C=CC3=O`, for which the TGI came out at 14.8 µM.

Turning to `O=c1nc(NC2CCCCO2)ccn1CCO` (stereo unspecified), the TGI is > 100 µM.

In the case of `COC(=O)c1onc(-c2c(OC)cc(OC)cc2OC)c1C(=O)OC`, the TGI was > 100 µM.

Take `CCCP1(=O)C=C(C)C(=C(Cl)Cl)C(C)=C1` (stereo unspecified): the TGI is > 100 µM.

With `CCCCCCCOc1ccc(/C=C\c2cc[n+](CCCCCCCC[n+]3ccc(/C=C\c4ccc(OCCCCCCC)cc4)cc3)cc2)cc1`, the TGI was determined as 33.3 µM.

For `CC(C)(C)OC(=O)NC(Cc1ccc(O)cc1)C(=O)N1CCCC1C(=O)O` (stereo not drawn) (Boc-Tyr-Pro-OH; configuration not given here), the TGI is > 100 µM.

For the molecule `O=C(O)c1ccc(C2COc3ccc(Cl)cc3C2)cc1` (stereo unspecified), the TGI was > 100 µM.

With `CC(=O)NC(CCCNC(=O)N(CCCl)N=O)C(=O)NCc1ccccc1` (stereo unspecified), the TGI is > 100 µM.

Take `c1ccc2c(c1)C1CCCCCC21N1CCOCC1` (stereo unspecified): the TGI is > 100 µM.

As to `COc1cccc(OC)c1C(=O)OCc1ccccc1`, the TGI is > 100 µM.

As for `O=C(CSc1nnc(Cc2ccccc2)o1)Nc1ccccc1`, the TGI was > 100 µM.

As to `Cc1ccc(/C=C/C(=O)C(C)(C)CN2CCCCC2)cc1`, the TGI came out at 35.6 µM.

As for `CC(=O)CN(Cc1cc(C)c2c(c1)c1ccccc1n2Cc1ccccc1)S(=O)(=O)c1ccc(C)cc1`, the TGI is > 100 µM.

`O=C1NC(=O)C2C(=O)NC(=O)C1C2c1c(Cl)cccc1Cl` (stereo unspecified): the TGI was > 100 µM.

Regarding `CC(=O)C(CN(CC(C)C)CC(C)C)C(c1ccccc1)c1c(O)c2ccccc2oc1=O` (stereo unspecified), the TGI was > 100 µM.

The next assay concerns OVCAR-8 ovarian. Kind of assay: NCI anticancer screen, dose series, 48 h.
With `COc1ccc2c(c1)C(=O)C1CC(=O)CCC21` (stereo unspecified), the TGI is > 100 µM.

Consider `COc1cccc(NC(=O)CSc2nnc(-c3ccc(NC(C)=O)cc3)o2)c1`, for which the TGI is > 100 µM.

Regarding `Clc1ccc(Nc2nc3ccccc3nc2-c2cccs2)cc1Cl`, the TGI was 68.6 µM.

`CCn1c2ccccc2c2ccc3c(c21)C(=O)C=CC3=O` showed a TGI of 29 µM.

On to `O=c1nc(NC2CCCCO2)ccn1CCO` (stereo unspecified), for which the TGI was > 100 µM.

`COC(=O)c1onc(-c2c(OC)cc(OC)cc2OC)c1C(=O)OC`: the TGI was > 100 µM.

Regarding `CCCP1(=O)C=C(C)C(=C(Cl)Cl)C(C)=C1` (stereo unspecified), the TGI is > 100 µM.

As to `CCCCCCCOc1ccc(/C=C\c2cc[n+](CCCCCCCC[n+]3ccc(/C=C\c4ccc(OCCCCCCC)cc4)cc3)cc2)cc1`, the TGI turned out to be 55.5 µM.

As to `CC(C)(C)OC(=O)NC(Cc1ccc(O)cc1)C(=O)N1CCCC1C(=O)O` (stereo not drawn) (Boc-Tyr-Pro-OH; configuration not given here), the TGI was > 100 µM.

For the molecule `O=C(O)c1ccc(C2COc3ccc(Cl)cc3C2)cc1` (stereo unspecified), the TGI was > 100 µM.

On to `CC(=O)NC(CCCNC(=O)N(CCCl)N=O)C(=O)NCc1ccccc1` (stereo unspecified), for which the TGI is > 100 µM.

In the case of `c1ccc2c(c1)C1CCCCCC21N1CCOCC1` (stereo unspecified), the TGI is > 100 µM.

Turning to `COc1cccc(OC)c1C(=O)OCc1ccccc1`, the TGI is > 100 µM.

Regarding `O=C(CSc1nnc(Cc2ccccc2)o1)Nc1ccccc1`, the TGI was > 100 µM.

Turning to `Cc1ccc(/C=C/C(=O)C(C)(C)CN2CCCCC2)cc1`, the TGI amounted to 10.3 µM.

For `CC(=O)CN(Cc1cc(C)c2c(c1)c1ccccc1n2Cc1ccccc1)S(=O)(=O)c1ccc(C)cc1`, the TGI was > 100 µM.

As to `O=C1NC(=O)C2C(=O)NC(=O)C1C2c1c(Cl)cccc1Cl` (stereo unspecified), the TGI was > 100 µM.

As to `O=C1OC(Cc2ccccc2)(N2CCCC2=O)C1c1ccccc1` (stereo unspecified), the TGI is > 100 µM.

On to `CC(=O)C(CN(CC(C)C)CC(C)C)C(c1ccccc1)c1c(O)c2ccccc2oc1=O` (stereo unspecified), for which the TGI was > 100 µM.

For the next assay, the system named is NCI-H522 lung. Kind of assay: NCI anticancer screen, dose series, 48 h.
`COc1ccc2c(c1)C(=O)C1CC(=O)CCC21` (stereo unspecified): the TGI was > 100 µM.

`COc1cccc(NC(=O)CSc2nnc(-c3ccc(NC(C)=O)cc3)o2)c1`: the TGI was > 100 µM.

Regarding `CCn1c2ccccc2c2ccc3c(c21)C(=O)C=CC3=O`, the TGI was found to be 4.52 µM.

Consider `O=c1nc(NC2CCCCO2)ccn1CCO` (stereo unspecified), for which the TGI is > 100 µM.

Take `COC(=O)c1onc(-c2c(OC)cc(OC)cc2OC)c1C(=O)OC`: the TGI was > 100 µM.

Consider `CCCP1(=O)C=C(C)C(=C(Cl)Cl)C(C)=C1` (stereo unspecified), for which the TGI turned out to be 36.5 µM.

With `CCCCCCCOc1ccc(/C=C\c2cc[n+](CCCCCCCC[n+]3ccc(/C=C\c4ccc(OCCCCCCC)cc4)cc3)cc2)cc1`, the TGI was determined as 10.7 µM.

Turning to `CC(C)(C)OC(=O)NC(Cc1ccc(O)cc1)C(=O)N1CCCC1C(=O)O` (stereo not drawn) (Boc-Tyr-Pro-OH; configuration not given here), the TGI was > 100 µM.

Regarding `O=C(O)c1ccc(C2COc3ccc(Cl)cc3C2)cc1` (stereo unspecified), the TGI is > 100 µM.

Turning to `CC(=O)NC(CCCNC(=O)N(CCCl)N=O)C(=O)NCc1ccccc1` (stereo unspecified), the TGI is > 100 µM.

For `c1ccc2c(c1)C1CCCCCC21N1CCOCC1` (stereo unspecified), the TGI is > 100 µM.

For `COc1cccc(OC)c1C(=O)OCc1ccccc1`, the TGI was > 100 µM.

On to `O=C(CSc1nnc(Cc2ccccc2)o1)Nc1ccccc1`, for which the TGI was > 100 µM.

The molecule `Cc1ccc(/C=C/C(=O)C(C)(C)CN2CCCCC2)cc1` showed a TGI of 13.7 µM.

With `CC(=O)CN(Cc1cc(C)c2c(c1)c1ccccc1n2Cc1ccccc1)S(=O)(=O)c1ccc(C)cc1`, the TGI is > 100 µM.

Source of the values: PubChem BioAssay (NCI).
